Literature values as cited in patent EP2243483A1, “Amlodipine salt compositions for topical application” (priority 2009, dated 2010).
Structures can show the parent of a compound that is named as a salt.

Tests used:
[1] = hypertensive patients
[2] = tablets
[3] = target: 3A4 (Homo sapiens, UniProt P08684)
[4] = tested on: 2C8/9
[5] = target: T1, CYP 1A2 isoenzyme (Homo sapiens, UniProt P05177)
T1 sequence (P05177 1-516): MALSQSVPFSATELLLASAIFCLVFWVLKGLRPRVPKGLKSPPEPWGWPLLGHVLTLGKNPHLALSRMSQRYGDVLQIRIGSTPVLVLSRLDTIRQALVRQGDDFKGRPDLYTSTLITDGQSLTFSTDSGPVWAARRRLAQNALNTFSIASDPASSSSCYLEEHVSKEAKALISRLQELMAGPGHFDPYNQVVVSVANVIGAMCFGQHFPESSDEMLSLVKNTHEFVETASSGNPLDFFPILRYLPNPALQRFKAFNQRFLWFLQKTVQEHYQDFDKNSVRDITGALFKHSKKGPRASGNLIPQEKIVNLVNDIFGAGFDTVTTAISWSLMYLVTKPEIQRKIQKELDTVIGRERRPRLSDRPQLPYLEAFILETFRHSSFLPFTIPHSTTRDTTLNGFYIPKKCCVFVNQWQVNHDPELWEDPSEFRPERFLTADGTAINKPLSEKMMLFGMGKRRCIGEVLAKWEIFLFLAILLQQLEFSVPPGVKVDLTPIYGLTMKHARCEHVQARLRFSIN

[6] = target: T2, 2B6 (Homo sapiens, UniProt P20813)
T2 sequence (P20813 1-491): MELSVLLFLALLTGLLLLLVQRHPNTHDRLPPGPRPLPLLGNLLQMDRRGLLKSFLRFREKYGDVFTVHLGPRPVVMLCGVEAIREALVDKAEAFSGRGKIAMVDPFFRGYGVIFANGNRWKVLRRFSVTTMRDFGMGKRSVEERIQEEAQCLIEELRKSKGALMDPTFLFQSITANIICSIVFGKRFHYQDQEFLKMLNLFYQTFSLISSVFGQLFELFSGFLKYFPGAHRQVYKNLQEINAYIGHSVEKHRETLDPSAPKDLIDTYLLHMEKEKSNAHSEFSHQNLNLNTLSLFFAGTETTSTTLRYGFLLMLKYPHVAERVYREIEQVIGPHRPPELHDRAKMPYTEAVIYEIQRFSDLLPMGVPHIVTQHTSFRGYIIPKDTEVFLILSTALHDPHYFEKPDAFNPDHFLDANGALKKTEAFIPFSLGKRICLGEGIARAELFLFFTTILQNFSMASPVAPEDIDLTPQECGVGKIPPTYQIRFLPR

[7] = target: 2D6 (Homo sapiens, UniProt P10635)
2D6, sequence (P10635 whole entry): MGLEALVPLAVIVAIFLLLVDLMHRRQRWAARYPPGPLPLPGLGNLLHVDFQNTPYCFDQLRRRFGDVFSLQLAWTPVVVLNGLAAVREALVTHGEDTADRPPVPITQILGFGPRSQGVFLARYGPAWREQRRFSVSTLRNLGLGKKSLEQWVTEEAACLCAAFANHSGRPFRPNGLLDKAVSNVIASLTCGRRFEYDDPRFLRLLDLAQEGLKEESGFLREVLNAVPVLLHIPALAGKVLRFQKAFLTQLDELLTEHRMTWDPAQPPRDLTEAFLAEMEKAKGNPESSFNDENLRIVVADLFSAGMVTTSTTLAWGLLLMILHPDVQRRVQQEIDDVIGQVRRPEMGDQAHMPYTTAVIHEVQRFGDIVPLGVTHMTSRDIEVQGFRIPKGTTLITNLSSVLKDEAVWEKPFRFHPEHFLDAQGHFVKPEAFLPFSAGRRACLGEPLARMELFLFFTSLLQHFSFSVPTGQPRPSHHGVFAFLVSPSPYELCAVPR

[8] = target: T3, 2A6 (Homo sapiens, UniProt P11509)
T3 sequence (P11509 1-494): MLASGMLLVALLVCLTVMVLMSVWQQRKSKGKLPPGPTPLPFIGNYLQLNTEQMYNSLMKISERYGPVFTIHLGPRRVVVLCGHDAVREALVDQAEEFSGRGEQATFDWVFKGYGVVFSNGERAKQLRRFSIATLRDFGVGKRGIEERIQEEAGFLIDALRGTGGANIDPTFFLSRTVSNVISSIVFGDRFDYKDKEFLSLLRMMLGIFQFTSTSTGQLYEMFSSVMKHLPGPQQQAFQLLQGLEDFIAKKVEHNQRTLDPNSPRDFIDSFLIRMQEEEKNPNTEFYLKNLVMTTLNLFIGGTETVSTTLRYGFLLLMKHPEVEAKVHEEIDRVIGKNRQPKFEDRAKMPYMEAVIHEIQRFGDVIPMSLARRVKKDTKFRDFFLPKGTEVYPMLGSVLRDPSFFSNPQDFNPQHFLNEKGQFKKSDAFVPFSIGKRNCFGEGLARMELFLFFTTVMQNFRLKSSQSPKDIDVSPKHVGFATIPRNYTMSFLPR

3A4, sequence (P08684 whole entry): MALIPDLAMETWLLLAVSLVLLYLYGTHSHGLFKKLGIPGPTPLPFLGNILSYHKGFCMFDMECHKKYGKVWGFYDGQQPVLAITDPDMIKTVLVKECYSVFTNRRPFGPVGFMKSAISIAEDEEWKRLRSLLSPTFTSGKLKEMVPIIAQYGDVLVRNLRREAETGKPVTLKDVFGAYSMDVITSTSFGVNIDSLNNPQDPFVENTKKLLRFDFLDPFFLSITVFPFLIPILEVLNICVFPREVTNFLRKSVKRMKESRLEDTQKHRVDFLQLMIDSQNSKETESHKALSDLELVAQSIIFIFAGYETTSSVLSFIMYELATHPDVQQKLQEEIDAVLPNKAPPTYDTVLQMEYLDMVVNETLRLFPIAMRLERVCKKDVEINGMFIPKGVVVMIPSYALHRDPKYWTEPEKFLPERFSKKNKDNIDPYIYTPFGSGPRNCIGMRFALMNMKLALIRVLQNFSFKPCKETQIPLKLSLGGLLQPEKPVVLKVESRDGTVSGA

| SMILES | circulating drug bound to plasma protein [1] | time required for therapeutic response, initially [2] | time required for therapeutic response, peak [2] | converted to inactive metabolites via hepatic metabolism (in vivo, po) | time of peak concentration (in vivo, po) | inhibition [3] | inhibition [4] | parent compound excreted in the urine (in vivo, po) | metabolites excreted in the urine (urine, oral) | inhibition [5] | inhibition [6] | inhibition [7] | inhibition [8] |
| --- | --- | --- | --- | --- | --- | --- | --- | --- | --- | --- | --- | --- | --- |
| CCOC(=O)C1=C(COCCN)NC(C)=C(C(=O)OC)C1c1ccccc1Cl (stereo not shown) [amlodipine maleate] | Approximately 93% | 7 days | about 14 days | About 90% | 6 to 12 h | – | – | – | – | – | – | – | – |
| CCOC(=O)C1=C(COCCN)NC(C)=C(C(=O)OC)C1c1ccccc1Cl (stereo not shown) [amlodipine] | – | – | – | – | – | weaker inhibition | weaker inhibition | 10% | 60% | moderately inhibited | weaker inhibition | weaker inhibition | weaker inhibition |
